Laboratory results from patent publication US12391679B2, “Benzamide-substituted bicyclic imidazo- and pyrazolo-fused -pyridine, -pyrimide, and -pyridazine compounds for treatment of inflammatory diseases” (ONCO3R Therapeutics BV, priority 2019, dated 2025).
pEC50, pIC50: −log10 of the molar value.

Experiments:
[1] = molecular target: T1, SIK1 (Homo sapiens, UniProt P57059); test: ADP-Glo kinase assay, SIK1; format: biochemical
T1 construct: purchased Carna Biosciences 02-131
Summary of the method: (§1)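 Luminescent ADP-Glo readout of ADP formed. Enzyme-substrate mix with ATP, reaction 120 min at RT, then 40 min ATP depletion and 30 min detection. Controls were 1% DMSO (negative) and 10 μM staurosporine (positive), both final.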

[2] = molecular target: T2, SIK2 (Homo sapiens, UniProt Q9H0K1); test: ADP-Glo kinase assay, SIK2; format: biochemical
T2 construct: purchased ThermoFisher Scientific PV4792
T2 sequence (Q9H0K1 whole entry): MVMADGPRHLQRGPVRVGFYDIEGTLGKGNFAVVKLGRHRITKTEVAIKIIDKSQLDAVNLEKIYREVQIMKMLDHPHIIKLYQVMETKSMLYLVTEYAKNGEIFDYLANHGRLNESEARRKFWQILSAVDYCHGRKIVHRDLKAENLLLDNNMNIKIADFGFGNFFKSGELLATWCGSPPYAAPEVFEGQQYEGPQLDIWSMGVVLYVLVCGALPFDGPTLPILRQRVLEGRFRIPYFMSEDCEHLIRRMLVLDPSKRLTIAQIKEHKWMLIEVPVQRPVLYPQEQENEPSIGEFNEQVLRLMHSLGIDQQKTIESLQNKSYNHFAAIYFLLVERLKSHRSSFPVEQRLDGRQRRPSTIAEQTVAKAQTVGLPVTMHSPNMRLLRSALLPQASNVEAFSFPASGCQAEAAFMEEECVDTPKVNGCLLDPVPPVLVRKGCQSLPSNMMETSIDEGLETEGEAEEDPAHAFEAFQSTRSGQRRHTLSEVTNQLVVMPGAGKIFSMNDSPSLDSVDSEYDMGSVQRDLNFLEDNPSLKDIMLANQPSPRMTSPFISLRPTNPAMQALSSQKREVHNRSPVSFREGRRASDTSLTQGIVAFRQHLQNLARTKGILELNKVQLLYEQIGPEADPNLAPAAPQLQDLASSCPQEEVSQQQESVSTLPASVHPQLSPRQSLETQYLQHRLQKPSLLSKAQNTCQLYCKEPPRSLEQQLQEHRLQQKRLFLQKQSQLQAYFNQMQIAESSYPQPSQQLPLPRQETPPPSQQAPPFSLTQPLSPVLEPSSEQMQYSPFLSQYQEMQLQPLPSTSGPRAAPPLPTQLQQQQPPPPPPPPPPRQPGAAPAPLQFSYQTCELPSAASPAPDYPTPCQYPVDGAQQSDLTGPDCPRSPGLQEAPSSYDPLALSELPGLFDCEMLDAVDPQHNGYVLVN
Summary of the method: as §1

[3] = molecular target: T3, SIK3 (Homo sapiens, UniProt Q9Y2K2); test: ADP-Glo kinase assay, SIK3; format: biochemical
T3 construct: purchased SignalChem S12-11G-100
T3 sequence (Q9Y2K2 59-365 limits assumed): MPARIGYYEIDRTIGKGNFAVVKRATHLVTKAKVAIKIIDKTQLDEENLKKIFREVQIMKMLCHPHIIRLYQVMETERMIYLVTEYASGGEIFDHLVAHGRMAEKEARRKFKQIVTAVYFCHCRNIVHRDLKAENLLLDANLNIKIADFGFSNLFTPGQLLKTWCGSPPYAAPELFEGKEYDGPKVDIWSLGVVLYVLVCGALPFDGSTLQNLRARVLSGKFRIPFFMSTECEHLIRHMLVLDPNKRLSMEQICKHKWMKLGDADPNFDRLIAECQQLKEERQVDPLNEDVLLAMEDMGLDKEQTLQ
Summary of the method: as §1

[4] = system: LPS-induced TNFα in monocytes; test: Monocytes assay: LPS-triggered TNFα (ELISA); format: cell-based, human; conditions: Homo sapiens, Monocyte, LPS-triggered TNFα inhibition
Experimental: This assay evaluates illustrative compounds of the invention for their inhibition of LPS-induced TNFα and LPS triggered IL-10 secretion in monocytes.
PBMCs are isolated from human blood samples (buffycoats). The buffy coat is aseptically transferred into a 50 mL Falcon tube, and diluted 1/2 in PBS. Falcon tubes are filled with 20 mL Lymphoprep™, on top of which 25 mL of the buffy coat is carefully added, tubes are centrifuged for 35 min at 400 g in temperature controlled centrifuge, without brake, at 25° C. PBMCs are aspirated from the white interface layer between sample and Lymphoprep™. PBMCs are washed five times in PBS.
PBMCs are centrifuged at 300×g for 10 min and resuspended at a density of 1.0*10^7 cells/80 μL Miltenyi buffer (PBS, pH 7.4, 1% FBS, 2 mM EDTA).
Starting from this point of the protocol all steps are performed on ice. 20 μL of CD14+ micro-beads are added per 1.0*10^7 cells, the tube is mixed and incubated for 15 min in the fridge at 4° C. Cell suspension volume is adjusted to total volume of 100 mL using Miltenyi buffer, mixed gently and subsequently centrifuged for 10 min at 300×g. Supernatant is discarded and cell pellet is resuspended in 12 mL of Miltenyi buffer.
Four LS columns are placed in the MACS Separator (magnet) from Miltenyi Biotec, and are prewet by rinsing with 3 mL of MACS buffer per column. Three mL of cell suspension is added onto the column (max 1*10^8 of labelled cells/column), and columns are subsequently washed 3 times with 3 mL of Miltenyi buffer.
The columns are removed from the magnets, and 5 mL of Miltenyi buffer are added to the column to flush out the CD14+ fraction by pushing the plunger into the column. The flushed fractions are collected in a fresh 50 mL Falcon and volume is adjusted to 30 mL using Miltenyi buffer, cells are centrifuged for 10 min at 300×g. The obtained cell pellet is resuspended in 10 mL RPMI w/o FBS, and cell density is determined using a hematologic analyser (Sysmex XS-500i).
A compound dilution plate is made in 100% DMSO by 3-fold dilution of 10 mM stock solution. An intermediate dilution plate (10× final concentration) is made by diluting the compound dilution plate 50-fold in RPMI medium.
10 μL of the 10× final concentration compound is added to the cells and incubated for 1 h at 37° C. before addition of trigger. No trigger conditions/trigger conditions are spiked with equal final DMSO concentrations of 0.2% DMSO. 10 μL of 10×LPS (final conc. 200 ng/mL) solution are added to all wells except for the ‘no trigger wells’ where 10 μL medium is added. Supernatant is collected after 4 h of LPS triggering.
The plate is then washed once with PBST (PBS+0.05% Tween20) and once with PBS followed by the addition of 100 μL of blocking buffer (1% Bovine Serum Albumin (BSA)-5% Sucrose) and plates are sealed and incubated for at least 4 h at RT. After washing the plate once with PBST and once with PBS, […]. Plates are washed twice with PBST, and once with PBS, after which 35 μL of the detection antibody is added (final concentration 0.25 μg/mL diluted in dilution buffer) and plates are incubated for at least 2 h at RT. Plates are washed twice with PBST, and once with PBS, whereafter 35 μL of Strep-HRP conjugate (0.5 μg/mL final concentration diluted in dilution buffer) is added. Plates are incubated in the dark, at RT for at least 45 min but no longer than 1 h. Plates are washed twice with PBST, and once with PBS. Thereafter, 50 μL of luminol substrate is added to each well (prepared according to manufacturer's instructions), and incubated for 5 min at RT protected from light.
To measure the inhibition of LPS induced TNFα, percentage inhibition (PIN) values are calculated for all concentrations tested, compared to controls.

T1 sequence (P57059 whole entry): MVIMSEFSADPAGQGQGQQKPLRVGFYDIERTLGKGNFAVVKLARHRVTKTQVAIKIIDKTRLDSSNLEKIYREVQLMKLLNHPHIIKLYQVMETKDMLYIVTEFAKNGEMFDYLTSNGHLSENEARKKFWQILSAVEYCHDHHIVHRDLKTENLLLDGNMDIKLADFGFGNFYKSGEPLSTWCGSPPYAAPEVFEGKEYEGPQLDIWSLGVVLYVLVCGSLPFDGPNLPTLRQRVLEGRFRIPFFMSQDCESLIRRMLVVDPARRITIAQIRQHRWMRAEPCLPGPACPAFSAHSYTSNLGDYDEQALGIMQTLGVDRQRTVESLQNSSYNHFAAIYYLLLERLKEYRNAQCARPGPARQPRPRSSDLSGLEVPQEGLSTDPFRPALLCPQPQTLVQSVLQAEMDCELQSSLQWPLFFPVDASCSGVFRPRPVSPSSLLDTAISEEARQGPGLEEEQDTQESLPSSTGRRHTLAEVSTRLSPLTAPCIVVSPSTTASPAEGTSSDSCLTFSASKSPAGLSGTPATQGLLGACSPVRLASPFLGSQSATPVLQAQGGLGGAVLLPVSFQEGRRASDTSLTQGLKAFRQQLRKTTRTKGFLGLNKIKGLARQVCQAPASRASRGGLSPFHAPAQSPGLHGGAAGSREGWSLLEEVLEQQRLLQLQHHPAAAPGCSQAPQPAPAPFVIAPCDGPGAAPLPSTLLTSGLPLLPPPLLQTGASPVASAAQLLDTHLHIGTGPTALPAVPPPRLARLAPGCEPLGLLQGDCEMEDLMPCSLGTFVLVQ

pIC50 [1] | pIC50 [2] | pIC50 [3] | pEC50 [4] | SMILES
< 6.30 | < 6.30 | 7.00 to 8.00 | 5.30 to 6.00 | COc1cc(-c2cnc3cc(C(C)N4CCOCC4)ccn23)cc(OC(F)F)c1C(=O)NC1CC1 (stereo not drawn) [Cpd 139, N-cyclopropyl-2-(difluoromethoxy)-6-methoxy-4-[7-(1-morpholinoethyl)imidazo[1,2-a]pyridin-3-yl]benzamide]
< 6.30 | < 6.30 | 7.00 to 8.00 | 6.00 to 7.00 | COc1cc(-c2cnc3cc(C(C)(O)CN4CCOCC4)ccn23)cc(OC(F)F)c1C(=O)NC1CC1 (stereo not drawn) [Cpd 178, N-cyclopropyl-2-(difluoromethoxy)-4-[7-(1-hydroxy-1-methyl-2-morpholino-ethyl)imidazo[1,2-a]pyridin-3-yl]-6-methoxy-benzamide]
8.00 to 11.00 | 8.00 to 11.00 | 8.00 to 11.00 | 7.00 to 10.00 | COc1cc(-c2cnc3cc(C(C)(O)CC#N)ccn23)cc(OC(F)F)c1C(=O)NC1CC1 (stereo not drawn) [Cpd 179, 4-[7-(2-cyano-1-hydroxy-1-methyl-ethyl)imidazo[1,2-a]pyridin-3-yl]-N-cyclopropyl-2-(difluoromethoxy)-6-methoxy-benzamide]
< 6.30 | < 6.30 | 7.00 to 8.00 | 6.00 to 7.00 | COc1cc(-c2cnc3cc(C(C)(O)CN4CCCCC4)ccn23)cc(OC(F)F)c1C(=O)NC1CC1 (stereo not drawn) [Cpd 185, N-cyclopropyl-2-(difluoromethoxy)-4-[7-[1-hydroxy-1-methyl-2-(1-piperidyl)ethyl]imidazo[1,2-a]pyridin-3-yl]-6-methoxy-benzamide]
< 6.30 | < 6.30 | 7.00 to 8.00 | 6.00 to 7.00 | COc1cc(-c2cnc3cc(C(C)(O)Cn4cccn4)ccn23)cc(OC(F)F)c1C(=O)NC1CC1 (stereo not drawn) [Cpd 192, N-cyclopropyl-2-(difluoromethoxy)-4-[7-(1-hydroxy-1-methyl-2-pyrazol-1-yl-ethyl)imidazo[1,2-a]pyridin-3-yl]-6-methoxy-benzamide]
< 6.30 | < 6.30 | 7.00 to 8.00 | 6.00 to 7.00 | COc1cc(-c2cnc3cc(C4(OC)COC4)ccn23)cc(OC(F)F)c1C(=O)NC1CC1 [Cpd 212, N-cyclopropyl-2-(difluoromethoxy)-6-methoxy-4-[7-(3-methoxyoxetan-3-yl)imidazo[1,2-a]pyridin-3-yl]benzamide]
< 6.30 | < 6.30 | 7.00 to 8.00 | 6.00 to 7.00 | COc1cc(-c2cnc3cc(C4(O)CCOC4)ccn23)cc(OC(F)F)c1C(=O)NC1CC1 (stereo not drawn) [Cpd 213, N-cyclopropyl-2-(difluoromethoxy)-4-[7-(3-hydroxytetrahydrofuran-3-yl)imidazo[1,2-a]pyridin-3-yl]-6-methoxy-benzamide]
< 6.30 | < 6.30 | 7.00 to 8.00 | 6.00 to 7.00 | COc1cc(-c2cnc3cc(C(C)(C)C4CCO4)ccn23)cc(OC(F)F)c1C(=O)NC1CC1 (stereo not drawn) [Cpd 229, N-cyclopropyl-2-(difluoromethoxy)-6-methoxy-4-[7-[1-methyl-1-(oxetan-2-yl)ethyl]imidazo[1,2-a]pyridin-3-yl]benzamide]

More lines, now with the values behind:

SMILES | pIC50 [1] | pIC50 [2] | pIC50 [3] | pEC50 [4]
COc1cc(-c2cnc3cc(C(C)(C)C(C)O)ccn23)cc(OC)c1C(=O)NCC(F)(F)F (stereo not drawn) [Cpd 62, 4-[7-(2-hydroxy-1,1-dimethyl-propyl)imidazo[1,2-a]pyridin-3-yl]-2,6-dimethoxy-N-(2,2,2-trifluoroethyl)benzamide] | < 6.30 | < 6.30 | 7.00 to 8.00 | 5.30 to 6.00
COc1cc(-c2cnc3cc(C4(C#N)CN(C)C4)ccn23)cc(OC(F)F)c1C(=O)NC1CC1 [Cpd 121, 4-[7-(3-cyano-1-methyl-azetidin-3-yl)imidazo[1,2-a]pyridin-3-yl]-N-cyclopropyl-2-(difluoromethoxy)-6-methoxy-benzamide] | < 6.30 | < 6.30 | 7.00 to 8.00 | 5.30 to 6.00
COc1cn2c(-c3cc(OC)c(C(=O)NC4CC4)c(OC(F)F)c3)cnc2cc1C1CCOCC1 [Cpd 167, N-cyclopropyl-2-(difluoromethoxy)-6-methoxy-4-(6-methoxy-7-tetrahydropyran-4-yl-imidazo[1,2-a]pyridin-3-yl)benzamide] | < 6.30 | 6.30 to 7.00 | 7.00 to 8.00 | 5.30 to 6.00
COc1cc(-c2cnc3cc(C4CN(C(C)=O)C4)c(F)cn23)cc(OC(F)F)c1C(=O)NC1CC1 [Cpd 169, 4-[7-(1-acetylazetidin-3-yl)-6-fluoro-imidazo[1,2-a]pyridin-3-yl]-N-cyclopropyl-2-(difluoromethoxy)-6-methoxy-benzamide] | < 6.30 | 6.30 to 7.00 | 7.00 to 8.00 | 5.30 to 6.00
COc1cc(-c2cnc3cc(C4CCCN4)ccn23)cc(OC(F)F)c1C(=O)NC1CC1 (stereo not drawn) [Cpd 188, N-cyclopropyl-2-(difluoromethoxy)-6-methoxy-4-(7-pyrrolidin-2-ylimidazo[1,2-a]pyridin-3-yl)benzamide] | < 6.30 | 6.30 to 7.00 | 7.00 to 8.00 | 6.00 to 7.00
COc1cc(-c2cnc3cc(C(C)(C)C#N)c(OCCO)cn23)cc(OC(F)F)c1C(=O)NC1CC1 [Cpd 221, 4-[7-(1-cyano-1-methyl-ethyl)-6-(2-hydroxyethoxy)imidazo[1,2-a]pyridin-3-yl]-N-cyclopropyl-2-(difluoromethoxy)-6-methoxy-benzamide] | < 6.30 | < 6.30 | 7.00 to 8.00 | 6.00 to 7.00
COc1cc(-c2cnc3cc(C4(O)COC4)ccn23)cc(OC(F)F)c1C(=O)N[C@@H]1C[C@@H]1F [Cpd 223, 2-(difluoromethoxy)-N-[(1R,2S)-2-fluorocyclopropyl]-4-[7-(3-hydroxyoxetan-3-yl)imidazo[1,2-a]pyridin-3-yl]-6-methoxy-benzamide] | < 6.30 | 6.30 to 7.00 | 7.00 to 8.00 | 6.00 to 7.00
COc1cc(-c2cnn3cc(C(C)(C)c4nc(C)no4)ccc23)cc(OC(F)F)c1C(=O)NC1CC1 [Cpd 248, N-cyclopropyl-2-(difluoromethoxy)-6-methoxy-4-[6-[1-methyl-1-(3-methyl-1,2,4-oxadiazol-5-yl)ethyl]pyrazolo[1,5-a]pyridin-3-yl]benzamide] | < 6.30 | < 6.30 | 7.00 to 8.00 | 6.00 to 7.00
COc1cc(-c2cnn3cc(C4(C#N)CCC4)ccc23)cc(OC(F)F)c1C(=O)N[C@@H]1C[C@@H]1F [Cpd 250, 4-[6-(1-cyanocyclobutyl)pyrazolo[1,5-a]pyridin-3-yl]-2-(difluoromethoxy)-N-[(1R,2S)-2-fluorocyclopropyl]-6-methoxy-benzamide] | < 6.30 | 6.30 to 7.00 | 8.00 to 11.00 | 6.00 to 7.00
COc1cc(-c2cnn3cc(C(C)(C)COCC(=O)N(C)C)ccc23)cc(OC(F)F)c1C(=O)N[C@@H]1C[C@@H]1F [Cpd 251, 2-(difluoromethoxy)-4-[6-[2-[2-(dimethylamino)-2-oxo-ethoxy]-1,1-dimethyl-ethyl]pyrazolo[1,5-a]pyridin-3-yl]-N-[(1R,2S)-2-fluorocyclopropyl]-6-methoxy-benzamide] | < 6.30 | < 6.30 | 8.00 to 11.00 | 6.00 to 7.00
